“And” between values parts separate entries of the source, which are not always exact repeats. Equal values may be shown once.
How the values were obtained:
[1] = test system: sRANKL induced osteoclast differentiation; assay: In vitro anti-osteoclastogenesis activity determination (TRAP staining); assay type: cell-based, mouse; set-up: key to inhibition of osteoclastogenesis, dose-response (fig. S2a): % inhibition = 100 − (treated−unstimulated)/(untreated−unstimulated)×100
Method in brief: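 Mouse bone-marrow macrophages in 10 ng/mL M-CSF were stimulated with 100 ng/mL sRANKL plus compound at 9 concentrations, refreshed every 2 days, triplicate wells. After 5 days TRAP-stained osteoclasts were counted; inhibition normalised to untreated and unstimulated controls, IC50 by nonlinear regression.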

sRANKL = target: T1, sRANKL (Rattus norvegicus, UniProt Q9ESE2, D175N); assay: Surface plasmon resonance (SPR) assay; assay type: binding; conditions: immobilized sRANKL, 25 °C
T1 construct: (1) sRANKL (rat 159-318 aa); His6-sumo (N, cleaved yes); made in house; host or cells: Escherichia coli BL21 (DE3)
T1 sequence (Q9ESE2 159-318 D175N): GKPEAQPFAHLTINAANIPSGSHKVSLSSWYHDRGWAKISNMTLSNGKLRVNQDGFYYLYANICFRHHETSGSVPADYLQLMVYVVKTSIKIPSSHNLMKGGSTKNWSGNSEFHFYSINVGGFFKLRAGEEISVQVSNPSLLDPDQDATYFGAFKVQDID
Protocol: A ProteOn XPR36TM SPR instrument (BioRad Hercules, CA) was used for carrying out SPR assays. sRANKL protein in PBS buffer, pH 7.4, was diluted to 20 nM in 10 mM sodium acetate buffer, pH 5.5 and immobilized in parallelflow channels of a the EDAC/Sulfo-NHS activated surface of a GLH biosensor chip (Bio-Rad) with an amine coupling kit (Bio-Rad). The surface was blocked with 1 M ethanolamine. The final immobilization level for sRANKL was approximately 14,000 RU. A blank immobilization channel in the same GLH biosensor chip was also activated with EDAC/Sulfo-NHS and blocked with 1 M ethanolamine to use as a reference.
Biosensor binding experiments were conducted in filtered and degassed running buffer (PBS containing 0.005% Tween-20, pH 7.4) at 25 °C. Compounds was dissolved in 100% DMSO in appropriate different series concentrations of stock solutions. Before detecting, compounds were diluted in six or five concentrations with running buffer and ensured that the content of DMSO contained in each detected concentration was consistent. Compounds in different concentrations were injected simultaneously at a flow rate at […] for 180 s and 120 s for the association phase, followed by 180 s for the disassociation. Following the compound injection, the chip surface was regenerated with 40 s pulses of 0.85% H3PO4 and running buffer.
ProtedOn Manager 2.0. was used for data analysis. Each set of sensorgrams was globally analyzed using the 1:1 Langmuir binding model to obtain the kinetic rate constants (Kon and Koff). Global kinetic rate constants (ka and kd) were derived for each reaction, and the equilibrium dissociation constant, KD, was calculated using the equation KD = kd/ka.

[2] = Pharmacokinetic studies in rat; assay type: in vivo; set-up: plasma concentration-time (fig. S2c): unit not given here
Protocol: 28-week-old and 280 g∼370 g weight male SD (Sprague Dawley) rats were used for pharmacokinetic (PK) studies. Rats were weighed and divided into groups of 3 rats per group. Compounds S3, S3-05 and S3-15 were dissolved in deionized water and made the concentration to 1 mg/mL. Then rats were oral gavage administrated at the doses of 10 mg/kg for each compound. Blood samples were collected in tubes with heparin sodium at 5 min, 10 min, 20 min, 30 min, 40 min, 60 min, 2 h, 3 h, 4 h, 5.5 h, 7 h, 9 h, 12 h, 16 h, 24 h, 32 h, 40 h, 48 h, time points, with three […] per time point for each compound. Blood samples were centrifuged 2100 × g for 10 min at 4 °C, then the plasma was transferred to a clean microfuge tube. Plasma samples were stored at −80 °C. Additionally, ten rats were used as a control and not treated with compound. Plasma from control mice was used to calibrate LC-MS and correct for matrix effects. Drug concentration in plasma was quantified by LC-MS-based methods. Pharmacokinetic parameters were estimated using Phoenix WinNonlin (version 6.3) (Certara USA, Princeton, New Jersey) from mean plasma concentration-time profiles.

[3] = test system: RANKL-induced resorption pits; assay: Hydroxyapatite resorption assay; assay type: cell-based, mouse; conditions: in words
Protocol: BMMs (1 × 10^5 cells/well) were cultured onto 6-well collagen-coated plates and stimulated with 100 ng/mL sRANKL and 10 ng/mL M-CSF for 3 days to generate early stage of osteoclasts began differentiation. Then early-stage osteoclasts were gently harvested using cell dissociation solution, and seeded into OsteoAssay Surface (hydroxyapatite-coated) 24-well plates. Early-stage osteoclasts were continue incubated in a medium containing sRANKL and M-CSF with or without treatment. After 48 h, wells were bleached to remove cells, followed by image acquisition for the measurement of resorbed areas using a Leica microscope. The percentage of surface resorbed was analyzed using ImageJ software.

[4] = Sprague-Dawley, rat, male SD rats, oral 10 mg/kg, plasma

CCOC(=O)c1sc(NC(=O)/C(=N/Nc2ccc(O)cc2C(=O)O)C(C)=O)nc1C [S3-05]
IC50 ([1]; Mus musculus, Osteoclast, 120 h, BMMs, M-CSF + 100 ng/mL sRANKL, 5 days, TRAP staining, read-out: OC IC50 (anti-osteoclastogenesis activity)): 0.41 µM | inhibition at 0.00774313 µM ([1]; Mus musculus, Osteoclast, conc. 0.00774313 μM, three replicate columns, read-out: inhibition of osteoclastogenesis, dose-response (fig. S2a)): 10.9% | inhibition at 0.0255523 µM ([1]; Mus musculus, Osteoclast, conc. 0.0255523 μM, three replicate columns, read-out: inhibition of osteoclastogenesis, dose-response (fig. S2a)): 21.5% | inhibition at 0.0843226 µM ([1]; Mus musculus, Osteoclast, conc. 0.0843226 μM, three replicate columns, read-out: inhibition of osteoclastogenesis, dose-response (fig. S2a)): 24.5% | inhibition at 0.278265 µM ([1]; Mus musculus, Osteoclast, conc. 0.278265 μM, three replicate columns, read-out: inhibition of osteoclastogenesis, dose-response (fig. S2a)): 45.8% | inhibition at 0.918274 µM ([1]; Mus musculus, Osteoclast, conc. 0.918274 μM, three replicate columns, read-out: inhibition of osteoclastogenesis, dose-response (fig. S2a)): 58.5% | inhibition at 3.0303 µM ([1]; Mus musculus, Osteoclast, conc. 3.0303 μM, three replicate columns, read-out: inhibition of osteoclastogenesis, dose-response (fig. S2a)): 78.9% | inhibition at 10 µM ([1]; Mus musculus, Osteoclast, conc. 10 μM, three replicate columns, read-out: inhibition of osteoclastogenesis, dose-response (fig. S2a)): 86.2% | inhibition at 33 µM ([1]; Mus musculus, Osteoclast, conc. 33 μM, three replicate columns, read-out: inhibition of osteoclastogenesis, dose-response (fig. S2a)): 98.5% | inhibition of osteoclastogenesis, dose-response (fig. S2a) ([1]; conc. 0.0023464 μM, three replicate columns): 5.216 and -0.5015 and 0.1003 | inhibition of osteoclastogenesis, dose-response (fig. S2a) ([1]; conc. 0.00774313 μM, three replicate columns): 7.021 and 8.826 | inhibition of osteoclastogenesis, dose-response (fig. S2a) ([1]; conc. 0.0255523 μM, three replicate columns): 18.7563 and 13.6409 | inhibition of osteoclastogenesis, dose-response (fig. S2a) ([1]; conc. 0.0843226 μM, three replicate columns): 23.8716 | inhibition of osteoclastogenesis, dose-response (fig. S2a) ([1]; conc. 0.278265 μM, three replicate columns): 51.2538 and 38.6159 | inhibition of osteoclastogenesis, dose-response (fig. S2a) ([1]; conc. 0.918274 μM, three replicate columns): 65.3962 and 65.0953 | inhibition of osteoclastogenesis, dose-response (fig. S2a) ([1]; conc. 3.0303 μM, three replicate columns): 74.4233 and 77.4323 | inhibition of osteoclastogenesis, dose-response (fig. S2a) ([1]; conc. 10 μM, three replicate columns): 87.0612 and 88.2648 | inhibition of osteoclastogenesis, dose-response (fig. S2a) ([1]; conc. 33 μM, three replicate columns): 99.3982 and 99.6991 | Kd (sRANKL): 23.6 µM | Cmax [2, 4]: 60 ± 10 ng/mL | half-life [2, 4]: 10.6 ± 2.31 h | AUC ([2]; male SD rats, oral 10 mg/kg, plasma): 0.38± 0.23 hr*ug/m | plasma concentration-time (fig. S2c) ([2]; rat, time 0.083 h): 0.0241 and 0.0344 and 0.0141 | plasma concentration-time (fig. S2c) ([2]; rat, time 0.167 h): 0.091 and 0.0772 and 0.0497 | plasma concentration-time (fig. S2c) ([2]; rat, time 0.333 h): 0.07 and 0.0598 and 0.0834 | plasma concentration-time (fig. S2c) ([2]; rat, time 0.5 h): 0.063 and 0.055 and 0.0901 | plasma concentration-time (fig. S2c) ([2]; rat, time 0.667 h): 0.057 and 0.0597 and 0.0836 | plasma concentration-time (fig. S2c) ([2]; rat, time 1 h): 0.0458 and 0.0351 and 0.0779 | plasma concentration-time (fig. S2c) ([2]; rat, time 2 h): 0.0356 and 0.0153 and 0.0386 | plasma concentration-time (fig. S2c) ([2]; rat, time 3 h): 0.0376 and 0.0287 and 0.0316 | plasma concentration-time (fig. S2c) ([2]; rat, time 4 h): 0.0238 and 0.027 and 0.0298 | plasma concentration-time (fig. S2c) ([2]; rat, time 5.5 h): 0.0163 and 0.0195 and 0.0418 | plasma concentration-time (fig. S2c) ([2]; rat, time 7 h): 0.0115 and 0.0105 and 0.0613 | plasma concentration-time (fig. S2c) ([2]; rat, time 9 h): 0.0058 and 0.0107 and 0.0452 | plasma concentration-time (fig. S2c) ([2]; rat, time 12 h): 0.0058 and 0.0222 and 0.0307 | plasma concentration-time (fig. S2c) ([2]; rat, time 16 h): 0.0077 and 0 and 0.0286 | plasma concentration-time (fig. S2c) ([2]; rat, time 24 h): 0.0024 and 0.0688 and 0.0143 | plasma concentration-time (fig. S2c) ([2]; rat, time 48 h): 0.0008 and 0.0021 and 0.0027 | bone resorption / RANKL-induced resorption pits [3]: suppresses RANKL-induced resorption

From PMC9468151, “Identification of a binding site on soluble RANKL that can be targeted to inhibit soluble RANK-RANKL interactions and treat osteoporosis” (Nature Communications, 2022)
